Inconclusive results and toxic doses are left out. Rule as the data show it: active = T/C of 150% or more; inactive = T/C below 125%.
Tested on: L1210 leukemia ip in BDF1 mice, survival T/C
Assay: NCI In Vivo Anticancer Drug Screen. Data for tumor model L1210 Leukemia (intraperitoneal) in B6D2F1 (BDF1) mice
Settings: endpoint: mean survival time, higher = longer survival
Procedure, shortened: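 In this screen, tumor-bearing mice given compound are compared to those given vehicle, and their survival values are reported as a treated-to-control quotient.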

Measured: T/C

COc1cccc2c1C(=O)c1c(O)c3c(c(O)c1C2=O)CC(O)(C(C)=O)CC3O (stereo not drawn)
inactive: dose: 0.16 mg/kg/injection, schedule: Q01DX009 (ip), vehicle: saline with Tween-80 103 % of control | dose: 0.16 mg/kg/injection, schedule: Q03HX008 (ip), vehicle: saline with Tween-80 100 % of control | dose: 0.32 mg/kg/injection, schedule: Q01DX009 (ip), vehicle: saline with Tween-80 90 % of control | dose: 0.32 mg/kg/injection, schedule: Q03HX008 (ip), vehicle: saline with Tween-80 97 % of control | dose: 0.63 mg/kg/injection, schedule: Q01DX009 (ip), vehicle: saline with Tween-80 99 % of control | dose: 0.63 mg/kg/injection, schedule: Q03HX008 (ip), vehicle: saline with Tween-80 100 % of control | dose: 1.25 mg/kg/injection, schedule: Q01DX009 (ip), vehicle: saline with Tween-80 94 % of control | dose: 1.25 mg/kg/injection, schedule: Q03HX008 (ip), vehicle: saline with Tween-80 95 % of control | dose: 2.5 mg/kg/injection, schedule: Q01DX009 (ip), vehicle: saline with Tween-80 91 % of control | dose: 2.5 mg/kg/injection, schedule: Q03HX008 (ip), vehicle: saline with Tween-80 95 % of control | dose: 5.0 mg/kg/injection, schedule: Q01DX001 (ip), vehicle: saline 102 % of control | dose: 5.0 mg/kg/injection, schedule: Q01DX009 (ip), vehicle: saline with Tween-80 101 % of control | dose: 5.0 mg/kg/injection, schedule: Q03HX008 (ip), vehicle: saline with Tween-80 97 % of control | dose: 10.0 mg/kg/injection, schedule: Q01DX001 (ip), vehicle: saline 94 % of control | dose: 10.0 mg/kg/injection, schedule: Q01DX009 (ip), vehicle: saline with Tween-80 100 % of control | dose: 10.0 mg/kg/injection, schedule: Q03HX008 (ip), vehicle: saline with Tween-80 90 % of control | dose: 20.0 mg/kg/injection, schedule: Q01DX001 (ip), vehicle: saline with Tween-80 100 % of control | dose: 20.0 mg/kg/injection, schedule: Q01DX001 (ip), vehicle: saline 105 % of control | dose: 20.0 mg/kg/injection, schedule: Q04DX003 (ip), vehicle: saline with Tween-80 96 % of control | dose: 40.0 mg/kg/injection, schedule: Q01DX001 (ip), vehicle: saline with Tween-80 100 % of control | dose: 40.0 mg/kg/injection, schedule: Q01DX001 (ip), vehicle: saline 105 % of control | dose: 40.0 mg/kg/injection, schedule: Q04DX003 (ip), vehicle: saline with Tween-80 103 % of control | dose: 80.0 mg/kg/injection, schedule: Q01DX001 (ip), vehicle: saline with Tween-80 102 % of control | dose: 80.0 mg/kg/injection, schedule: Q04DX003 (ip), vehicle: saline with Tween-80 102 % of control | dose: 160.0 mg/kg/injection, schedule: Q01DX001 (ip), vehicle: saline with Tween-80 105 % of control | dose: 160.0 mg/kg/injection, schedule: Q04DX003 (ip), vehicle: saline with Tween-80 103 % of control

Cc1c(NC(=O)Nc2ccc(C3=NCCCN3)cc2)cccc1NC(=O)Nc1ccc(C2=NCCCN2)cc1
active: dose: 25.0 mg/kg/injection, schedule: Q01DX Z (ip), vehicle: water 215 % of control | dose: 50.0 mg/kg/injection, schedule: Q01DX Z (ip), vehicle: water 162 % of control | dose: 100.0 mg/kg/injection, schedule: Q01DX Z (ip), vehicle: water 191 % of control
inactive: dose: 4.0 mg/kg/injection, schedule: Q01DX Z (ip), vehicle: water 96 % of control | dose: 6.0 mg/kg/injection, schedule: Q01DX Z (ip), vehicle: water 121 % of control | dose: 8.0 mg/kg/injection, schedule: Q01DX Z (ip), vehicle: water 109 % of control | dose: 31.0 mg/kg/injection, schedule: Q01DX Z (oral), vehicle: water 113 % of control | dose: 125.0 mg/kg/injection, schedule: Q01DX Z (oral), vehicle: water 108 % of control

CCCCC(CCC)CCC
inactive: dose: 100.0 mg/kg/injection, schedule: Q04DX002 (ip), vehicle: saline with Tween-80 103 % of control | dose: 200.0 mg/kg/injection, schedule: Q04DX002 (ip), vehicle: saline with Tween-80 94 % of control | dose: 400.0 mg/kg/injection, schedule: Q04DX002 (ip), vehicle: saline with Tween-80 106 % of control

C(=C/c1ccc(/C=C/c2ccccc2)cc1)/c1ccccc1
inactive: dose: 100.0 mg/kg/injection, schedule: Q01DX009 (ip), vehicle: Klucel (hydroxypropylcellulose) (HPC) 98 % of control | dose: 100.0 mg/kg/injection, schedule: Q04DX003 (ip), vehicle: Klucel (hydroxypropylcellulose) (HPC) 98 % of control | dose: 200.0 mg/kg/injection, schedule: Q01DX009 (ip), vehicle: Klucel (hydroxypropylcellulose) (HPC) 93 % of control | dose: 200.0 mg/kg/injection, schedule: Q04DX003 (ip), vehicle: Klucel (hydroxypropylcellulose) (HPC) 104 % of control | dose: 400.0 mg/kg/injection, schedule: Q01DX009 (ip), vehicle: Klucel (hydroxypropylcellulose) (HPC) 95 % of control | dose: 400.0 mg/kg/injection, schedule: Q04DX003 (ip), vehicle: Klucel (hydroxypropylcellulose) (HPC) 90 % of control
